Source: patent US20170050980A1, “OXADIAZINE COMPOUNDS AND METHODS OF USE THEREOF” (FORUM Pharmaceuticals Inc., priority 2015, published 2017)

system: Aβ42; experiment: In vitro cell screening assay; quantification of Aβ (1-42) peptide by sandwich ELISA; type: cell-based; details: Human neuroglioma H4 cells stably expressing human wild type APP751; compounds 0.003-10 μM, incubated overnight (16-18 h); Aβ42 in supernatant by sandwich ELISA; normalized to DMSO and DAPT; read-out: Aβ42 H4 Prot Fre IC50
Experimental: Human neuroglioma H4 cells were transfected with a pcDNA3.1 plasmid expressing human wild type APP751 cDNA and a stable cell line was generated using G418 selection. Cells were plated at 15,000 cells/well in Costar 96-well plates and placed at 37° C. and 5% CO2. Six hours after plating, cells were washed three times with Pro293™ chemically defined medium, followed by addition of compounds (0.003-10 μM, final DMSO concentration of 0.33%). Plates were incubated overnight (16-18 h) and supernatant was removed for quantification of Aβ peptides by sandwich ELISA. Cytotoxicity was evaluated using Cell-Titer 96W AQueous One Solution Cell Proliferation Assay according to the manufacturer's protocol.
Aβ peptide levels were quantified by sandwich ELISA. 96-well plates were coated with C-terminal specific Aβ antibodies recognizing either Aβ37, Aβ38, Aβ40, Aβ42, Aβ43 or a N-terminal specific Aβ antibody to detect Aβ 1-x. Plates were then blocked overnight at 4° C. with 1% bovine serum albumin (BSA) in PBS-T. Plates were washed and 100 μl of cultured cell supernatant or synthetic Aβ peptide standards and a detection antibody (4G8-HRP) were applied to the blocked plate and incubated overnight at 4° C. The next day, wells were washed before the addition of detection substrate (TMB peroxidase). Plates were then read for absorbance at 450 nm on a Molecular Devices SpectraMax M5e Microplate Reader.
Compound-treated samples were normalized to samples treated with DMSO alone (no inhibition) and to samples treated with DAPT. IC50 values were calculated from values reported as percent of DMSO controls using nonlinear regression, based on a sigmoidal dose—response (variable slope) model. […] used for calculation.

SMILES	IC50
COc1nc(C2=NOCC3CN(c4ccc(Cl)cc4C(F)(F)F)CCN23)ccc1-n1cnc(C)c1 (single isomer, unassigned) [Example 36A, 8-(4-chloro-2-(trifluoromethyl)phenyl)-4-(6-methoxy-5-(4-methyl-1H-imidazol-1-yl)pyridin-2-yl)-1,6,7,8,9,9a-hexahydropyrazino [1,2-d] [1,2, 4] oxadiazine]	64 nM
COc1nc(C2=NOCC3CN(c4ccc(Cl)cc4C(F)(F)F)CCN23)ccc1-n1cnc(C)c1 (single isomer, unassigned) [Example 36B, 8-(4-chloro-2-(trifluoromethyl)phenyl)-4-(6-methoxy-5-(4-methyl-1H-imidazol-1-yl)pyridin-2-yl)-1,6,7,8,9,9a-hexahydropyrazino [1,2-d] [1,2,4] oxadiazine]	307 nM
COc1nc(C2=NOC(C)C(c3cccc(Cl)c3)N2)ccc1-n1cnc(C)c1 (single isomer, unassigned) [Example 41A, 5-(3-chlorophenyl)-3-(6-methoxy-5-(4-methyl-1H-imidazol-1-yl)pyridin-2-yl)-6-methyl-5,6-dihydro-4H-1,2,4-oxadiazine]	1430 nM
COc1nc(C2=NOC(C)C(c3cccc(Cl)c3)N2)ccc1-n1cnc(C)c1 (single isomer, unassigned) [Example 41B, 5-(3-chlorophenyl)-3-(6-methoxy-5-(4-methyl-1H-imidazol-1-yl)pyridin-2-yl)-6-methyl-5,6-dihydro-4H-1,2,4-oxadiazine]	14.2 nM
COc1nc(C2=NOC(C)C(c3cc4ccc(Cl)cc4o3)N2)ccc1-n1cnc(C)c1 (single isomer, unassigned) [Example 46A, 5-(6-chlorobenzofuran-2-yl)-3-(6-methoxy-5-(4-methyl-1H-imidazol-1-yl)pyridin-2-yl)-6-methyl-5,6-dihydro-4H-1,2,4-oxadiazine]	225 nM
COc1nc(C2=NOC(C)C(c3cc4ccc(Cl)cc4o3)N2)ccc1-n1cnc(C)c1 (single isomer, unassigned) [Example 46B, 5-(6-chlorobenzofuran-2-yl)-3-(6-methoxy-5-(4-methyl-1H-imidazol-1-yl)pyridin-2-yl)-6-methyl-5,6-dihydro-4H-1,2,4-oxadiazine]	5.1 nM
COc1nc(C2=NOC(C)C(c3cc4ccc(Cl)cc4o3)N2)ccc1-n1cnc(C)c1 (single isomer, unassigned) [Example 46C, 5-(6-chlorobenzofuran-2-yl)-3-(6-methoxy-5-(4-methyl-1H-imidazol-1-yl)pyridin-2-yl)-6-methyl-5,6-dihydro-4H-1,2,4-oxadiazine]	291 nM
COc1nc(C2=NOC(C)C(c3cc4ccc(Cl)cc4o3)N2)ccc1-n1cnc(C)c1 (single isomer, unassigned) [Example 46D, 5-(6-chlorobenzofuran-2-yl)-3-(6-methoxy-5-(4-methyl-1H-imidazol-1-yl)pyridin-2-yl)-6-methyl-5,6-dihydro-4H-1,2,4-oxadiazine]	2.8 nM
COc1nc(C2=NOC(C)C(c3cn(C)c4ncc(C(F)(F)F)cc34)N2)ccc1-n1cnc(C)c1 (single isomer, unassigned; (+)) [44B or 45B, (+)-3-(6-methoxy-5-(4-methyl-1H-imidazol-1-yl)pyridin-2-yl)-6-methyl-5-(1-methyl-5-(trifluoromethyl)-1H-pyrrolo[2,3-b]pyridin-3-yl)-5,6-dihydro-4H-1,2,4-oxadiazine]	8.2 nM
COc1nc(C2=NOC(C)C(c3cn(C)c4ncc(C(F)(F)F)cc34)N2)ccc1-n1cnc(C)c1 (single isomer, unassigned; (+)) [44D or 45D, (+)-3-(6-methoxy-5-(4-methyl-1H-imidazol-1-yl)pyridin-2-yl)-6-methyl-5-(1-methyl-5-(trifluoromethyl)-1H-pyrrolo[2,3-b]pyridin-3-yl)-5,6-dihydro-4H-1,2,4-oxadiazine]	4.3 nM
COc1nc(C2=NOC(C)C(c3cn(C)c4cc(F)c(Cl)cc34)N2)ccc1-n1cnc(C)c1 (single isomer, unassigned; (+)) [Example 21B, (+)-5-(5-chloro-6-fluoro-1-methyl-1H-indol-3-yl)-3-(6-methoxy-5-(4-methyl-1H-imidazol-1-yl)pyridin-2-yl)-6-methyl-5,6-dihydro-4H-1,2,4-oxadiazine]	3 nM
COc1nc(C2=NOC(C)C(c3cn(C)c4cc(F)c(Cl)cc34)N2)ccc1-n1cnc(C)c1 (single isomer, unassigned; (+)) [Example 21D, (+)-5-(5-chloro-6-fluoro-1-methyl-1H-indol-3-yl)-3-(6-methoxy-5-(4-methyl-1H-imidazol-1-yl)pyridin-2-yl)-6-methyl-5,6-dihydro-4H-1,2,4-oxadiazine]	2 nM
COc1nc(C2=NOC(C)(C)C(c3ccccc3)N2)ccc1-n1cnc(C)c1 (single isomer, unassigned; (+)) [Example 22B, (+)-3-[6-methoxy-5-(4-methyl-1H-imidazol-1-yl)pyridin-2-yl]-6,6-dimethyl-5-phenyl-5,6-dihydro-4H-1,2,4-oxadiazine]	75 nM
COc1nc(C2=NOC(C)(C)C(c3ccc(Cl)cc3)N2)ccc1-n1cnc(C)c1 (single isomer, unassigned; (+)) [Example 23B, (+)-5-(4-chlorophenyl)-3-[6-methoxy-5-(4-methyl-1H-imidazol-1-yl)pyridin-2-yl]-6,6-dimethyl-5,6-dihydro-4H-1,2,4-oxadiazine]	23 nM
COc1nc(C2=NOC3(CC3)C(c3ccc(Cl)cc3)N2)ccc1-n1cnc(C)c1 (single isomer, unassigned; (+)) [Example 25B, (+)-8-(4-chlorophenyl)-6-[6-methoxy-5-(4-methyl-1H-imidazol-1-yl)pyridin-2-yl]-4-oxa-5,7-diazaspiro[2.5]oct-5-ene]	26 nM
COc1nc(C2=NOCC(C)(c3cn(C)c4ccccc34)N2)ccc1-n1cnc(C)c1 (single isomer, unassigned; (+)) [Example 26A, (+)-3-[3-[6-methoxy-5-(4-methyl-1H-imidazol-1-yl)pyridin-2-yl]-5-methyl-5,6-dihydro-4H-1,2,4-oxadiazin-5-yl]-1-methyl-1H-indole]	48 nM
COc1nc(C2=NOCC(c3c4n(c5ccc(Cl)cc35)CCOC4)N2)ccc1-n1cnc(C)c1 (single isomer, unassigned; (+)) [Example 28A, (+)-8-chloro-10-(3-(6-methoxy-5-(4-methyl-1H-imidazol-1-yl)pyridin-2-yl)-5,6-dihydro-4H-1,2,4-oxadiazin-5-yl)-3,4-dihydro-1H-[1,4]oxazino[4,3-a]indole]	5.3 nM
COc1nc(C2=NOCC(c3cn(C)c4ccc(C5CCOCC5)cc34)N2)ccc1-n1cnc(C)c1 (single isomer, unassigned; (+)) [Example 29B, (+)-3-(6-methoxy-5-(4-methyl-1H-imidazol-1-yl)pyridin-2-yl)-5-(1-methyl-5-(tetrahydro-2H-pyran-4-yl)-1H-indol-3-yl)-5,6-dihydro-4H-1,2,4-oxadiazine]	20.5 nM
COc1nc(C2=NOCC(c3c4n(c5ccccc35)CCOC4)N2)ccc1-n1cnc(C)c1 (single isomer, unassigned; (+)) [Example 30B, (+)-10-(3-(6-methoxy-5-(4-methyl-1H-imidazol-1-yl)pyridin-2-yl)-5,6-dihydro-4H-1,2,4-oxadiazin-5-yl)-3,4-dihydro-1H-[1,4]oxazino[4,3-a]indole]	16.9 nM
COc1nc(C2=NOC(C)C(c3cn(C)c4cc(F)c(F)cc34)N2)ccc1-n1cnc(C)c1 (single isomer, unassigned; (+)) [Example 39A, (+)-5-(5,6-difluoro-1-methyl-1H-indol-3-yl)-3-(6-methoxy-5-(4-methyl-1H-imidazol-1-yl)pyridin-2-yl)-6-methyl-5,6-dihydro-4H-1,2,4-oxadiazine]	5.4 nM
COc1nc(C2=NOC(C)C(c3cn(C)c4cc(F)c(F)cc34)N2)ccc1-n1cnc(C)c1 (single isomer, unassigned; (+)) [Example 39D, (+)-5-(5,6-difluoro-1-methyl-1H-indol-3-yl)-3-(6-methoxy-5-(4-methyl-1H-imidazol-1-yl)pyridin-2-yl)-6-methyl-5,6-dihydro-4H-1,2,4-oxadiazine]	4.4 nM
COc1nc(C2=NOC(C)C(c3ccc(Cl)cc3)N2)ccc1-n1cnc(Cl)c1 (single isomer, unassigned; (+)) [Example 42B, (+)-3-(5-(4-chloro-1H-imidazol-1-yl)-6-methoxypyridin-2-yl)-5-(4-chlorophenyl)-6-methyl-5,6-dihydro-4H-1,2,4-oxadiazine]	18.4 nM
COc1cc(C2=NOC(C)C(c3ccc(Cl)cc3)N2)ccc1-n1cnc(C)c1 (single isomer, unassigned; (+)) [Example 43B, (+)-5-(4-chlorophenyl)-3-(3-methoxy-4-(4-methyl-1H-imidazol-1-yl)phenyl)-6-methyl-5,6-dihydro-4H-1,2,4-oxadiazine]	80.5 nM
